Laboratory results as given in the COVID Moonshot data (paper PMC11187573), “Identification of SARS-CoV-2 Mpro inhibitors through deep reinforcement learning for de novo drug design and computational chemistry approaches” (RSC Medicinal Chemistry, 2024).

Assays:
[1] = biological target: SARS-CoV-2 Main Protease (SARS-CoV-2) (UniProt P0DTD1)
[2] = biological target: SARS-CoV-2 Main Protease (SARS-CoV-2) (UniProt P0DTD1); remark: listed apart in the source

Work on `Cc1ccncc1NC(=O)Nc1ccccc1` yielded an inhibition ([1]; 20.0 µM) of 0%, an inhibition ([1]; 50.0 µM) of -0.18% and a relative solubility at 20 uM of 1. It also gave a relative solubility at 100 uM of 1 and an inhibition ([2]; 50.0 µM) of 21.1%.

Work on `CC(C)(C)NC(=O)C(c1cccnc1)N(C(=O)c1ccco1)c1ccc(C(C)(C)C)cc1` (centres undefined) yielded an inhibition ([1]; 50.0 µM) of 23.9%, a relative solubility at 20 uM of 1.01 and a relative solubility at 100 uM of 0.99. The inhibition ([2]; 20.0 µM) was 74% and the inhibition ([2]; 50.0 µM) was 86.6%.

For `O=C1C(=O)N(Cc2ccc(Br)cc2)c2ccccc21`, the IC50 [1] was 747 nM, the inhibition ([1]; 50.0 µM) was 100% and the relative solubility at 20 uM was 1.01. The relative solubility at 100 uM was 0.9, the inhibition ([2]; 20.0 µM) was -3.27% and the inhibition ([2]; 50.0 µM) was 0.439%.

For `O=C(c1cc(=O)[nH]c2ccc(F)cc12)N1CCN(S(=O)(=O)c2cccc(Cl)c2)CC1`, the inhibition ([1]; 50.0 µM) was 52.8%, the relative solubility at 20 uM was 0.98 and the relative solubility at 100 uM was 0.87. It also gave an inhibition ([2]; 20.0 µM) of 1.39% and an inhibition ([2]; 50.0 µM) of 25.7%.

With `O=C1CN(c2nnc(C3CCC(=O)N3)n2CCn2cc(Cl)cn2)CCN1` (centres undefined) the inhibition ([1]; 50.0 µM) was 35.3%, the relative solubility at 20 uM was 1 and the relative solubility at 100 uM was 1. The inhibition ([2]; 20.0 µM) was -2.26% and the inhibition ([2]; 50.0 µM) was -0.405%.

For `O=C(Nc1cccnc1)c1cccc(Cl)c1`, the inhibition ([1]; 20.0 µM) was 0%, the relative solubility at 20 uM was 1 and the relative solubility at 100 uM was 0.92. For the same compound, the inhibition ([2]; 20.0 µM) was 5.47% and the inhibition ([2]; 50.0 µM) was 6.67%.

Work on `O=C(CCl)N1CCN(C(c2ccccc2)c2ccccc2)CC1` yielded an IC50 [1] of 386 nM, an inhibition ([1]; 20.0 µM) of 100% and an inhibition ([1]; 50.0 µM) of 100%. The relative solubility at 20 uM was -0.2, the relative solubility at 100 uM was 0.01 and the inhibition ([2]; 50.0 µM) was 108%.

With `C=CC(=O)N(c1ccc(C(C)(C)C)cc1)C(C(=O)NCC1CCOC1)c1cccnc1` (centres undefined) the inhibition ([1]; 20.0 µM) was 1.1%, the inhibition ([1]; 50.0 µM) was 29.4% and the relative solubility at 20 uM was 1. The relative solubility at 100 uM was 0.99, the inhibition ([2]; 20.0 µM) was 25.7% and the inhibition ([2]; 50.0 µM) was 41.3%.

In the case of `CCN(Cc1cccc(-c2ccncc2)c1)C(=O)Cc1noc2ccccc12`, the inhibition ([1]; 20.0 µM) is reported as 0%, the relative solubility at 20 uM is reported as 0.98 and the relative solubility at 100 uM is reported as 0.85. The inhibition ([2]; 20.0 µM) was -25.4% and the inhibition ([2]; 50.0 µM) was -15.8%.

`C=CC(=O)N(c1ccc(C(C)(C)C)cc1)C(C(=O)NC1CC(C(=O)OC)C1)c1cccnc1` (centres undefined) gave an inhibition ([1]; 20.0 µM) of 0%, an inhibition ([1]; 50.0 µM) of 0% and a relative solubility at 20 uM of 0.99. For the same compound, the relative solubility at 100 uM was 0.98, the inhibition ([2]; 20.0 µM) was 5.7% and the inhibition ([2]; 50.0 µM) was 4.24%.

`C=CC(=O)N(C(C(=O)NC(C)(C)C)c1cccnc1)[C@@H]1C[C@@H]1c1ccccc1` (stereo in doubt) showed an inhibition ([1]; 20.0 µM) of 0%, a relative solubility at 20 uM of 0.97 and a relative solubility at 100 uM of 0.88. It also gave an inhibition ([2]; 20.0 µM) of -14.4% and an inhibition ([2]; 50.0 µM) of -6.46%.

With `C=CC(=O)N(c1ccc(C(C)C)nc1)C(C(=O)Nc1c(C)cccc1CC)c1cccnc1` (centres undefined) the inhibition ([1]; 20.0 µM) was 0%, the relative solubility at 20 uM was 1 and the relative solubility at 100 uM was 0.95. The inhibition ([2]; 20.0 µM) was 5.61% and the inhibition ([2]; 50.0 µM) was 12.5%.

For `O=C(Cc1cccnc1Br)Nc1cccc(OCCn2cncn2)c1`, the inhibition ([1]; 20.0 µM) was 0%, the inhibition ([1]; 50.0 µM) was 0% and the relative solubility at 20 uM was 1. For the same compound, the relative solubility at 100 uM was 1 and the inhibition ([2]; 50.0 µM) was -21.7%.

`Cc1[nH]c2ccccc2c1/C=N/N(C)C(=O)c1ccc2c(c1)OCO2` gave an inhibition ([1]; 50.0 µM) of -6.66%, a relative solubility at 20 uM of 0.78 and a relative solubility at 100 uM of 0.77. It also gave an inhibition ([2]; 20.0 µM) of 2.2% and an inhibition ([2]; 50.0 µM) of -13.4%.

`O=C(c1cc(=O)[nH]c2ccc(F)cc12)N1CCN(S(=O)(=O)c2ccc(Cl)cc2)CC1` showed an inhibition ([1]; 50.0 µM) of 50%, a relative solubility at 20 uM of 0.98 and a relative solubility at 100 uM of 0.81. The inhibition ([2]; 20.0 µM) was -1.84% and the inhibition ([2]; 50.0 µM) was 11.4%.

Compound `Cc1ccncc1NC(=O)Nc1cncc(C#N)c1` has an inhibition ([1]; 50.0 µM) of 15.5%, a relative solubility at 20 uM of 1 and a relative solubility at 100 uM of 1. It also gave an inhibition ([2]; 20.0 µM) of 3.67% and an inhibition ([2]; 50.0 µM) of 3.96%.

Work on `NS(=O)(=O)CCc1ccccc1CN1CCN(C(=O)CCl)CC1` yielded an IC50 [1] of 834 nM, an inhibition ([1]; 50.0 µM) of 100% and a relative solubility at 20 uM of 1. For the same compound, the relative solubility at 100 uM was 1, the inhibition ([2]; 20.0 µM) was 101% and the inhibition ([2]; 50.0 µM) was 103%.

Compound `CCN(C)CC1CCN(c2ccc(S(N)(=O)=O)cc2)CC1` has an inhibition ([1]; 20.0 µM) of 0%, an inhibition ([1]; 50.0 µM) of 0% and a relative solubility at 20 uM of 1. The relative solubility at 100 uM was 0.98, the inhibition ([2]; 20.0 µM) was 3.39% and the inhibition ([2]; 50.0 µM) was 6.02%.

Work on `CN(C(=O)Cn1nnc2ccccc21)c1ccc(Oc2ccc(C(F)(F)F)cn2)cc1` yielded an inhibition ([1]; 50.0 µM) of 19.2%, a relative solubility at 20 uM of 0.98 and a relative solubility at 100 uM of 0.87. For the same compound, the inhibition ([2]; 20.0 µM) was 30.2% and the inhibition ([2]; 50.0 µM) was 59.4%.

With `C=CC(=O)N(c1ccc(SC)cc1)C(C(=O)Nc1c(C)cccc1CC)c1cccnc1` (centres undefined) the inhibition ([1]; 20.0 µM) was 0%, the relative solubility at 20 uM was 0.85 and the relative solubility at 100 uM was 0.67. It also gave an inhibition ([2]; 20.0 µM) of 11.1% and an inhibition ([2]; 50.0 µM) of 24.5%.

With `C=CC(=O)N(c1ccc(C(C)(C)C)cc1)C(C(=O)NC(C)(C)C)c1cccnc1C` (centres undefined) the inhibition ([1]; 20.0 µM) was 0%, the inhibition ([1]; 50.0 µM) was 0% and the relative solubility at 20 uM was 0.99. For the same compound, the relative solubility at 100 uM was 0.99, the inhibition ([2]; 20.0 µM) was -1.34% and the inhibition ([2]; 50.0 µM) was 2.24%.

Compound `C=CC(=O)N1CCN(Cc2c[nH]c3ccc(C#N)cc23)CC1` has an inhibition ([1]; 20.0 µM) of 0%, an inhibition ([1]; 50.0 µM) of 0% and a relative solubility at 20 uM of 0.97. For the same compound, the relative solubility at 100 uM was 0.92, the inhibition ([2]; 20.0 µM) was -36.2% and the inhibition ([2]; 50.0 µM) was -27.1%.

Compound `O=C1[C@H](Nc2nccn3cnnc23)CCN1c1cccc(Cl)c1` (stereo in doubt) has an inhibition ([1]; 50.0 µM) of 0%, a relative solubility at 20 uM of 1 and a relative solubility at 100 uM of 0.98. The inhibition ([2]; 20.0 µM) was 3.55% and the inhibition ([2]; 50.0 µM) was 5.29%.

For `Cc1ccnc(NC(=O)Cc2ccc3ccccc3c2)c1`, the inhibition ([1]; 20.0 µM) was 0%, the relative solubility at 20 uM was 0.98 and the relative solubility at 100 uM was 0.94. The inhibition ([2]; 20.0 µM) was 3.57% and the inhibition ([2]; 50.0 µM) was 8.23%.

With `O=C(Cc1cccc(Cl)c1)Nc1nnn[nH]1` the inhibition ([1]; 50.0 µM) was 27.2%, the relative solubility at 20 uM was 1 and the relative solubility at 100 uM was 1. For the same compound, the inhibition ([2]; 20.0 µM) was 23.3% and the inhibition ([2]; 50.0 µM) was 49.1%.

Compound `CCCC(C(=O)Nc1cnccc1C)c1cccc(Cl)c1` (centres undefined) has an IC50 [1] of 5480 nM, an inhibition ([1]; 50.0 µM) of 78.3% and a relative solubility at 20 uM of 1. It also gave a relative solubility at 100 uM of 0.99, an inhibition ([2]; 20.0 µM) of 77.9% and an inhibition ([2]; 50.0 µM) of 90.6%.

`CCS(=O)(=O)N1CCC(C(=O)Nc2cc(Cl)ccc2O)CC1` showed an inhibition ([1]; 50.0 µM) of 0%, a relative solubility at 20 uM of 1 and a relative solubility at 100 uM of 1. The inhibition ([2]; 20.0 µM) was -1.05% and the inhibition ([2]; 50.0 µM) was -2.7%.
